Counter-ions that a name gives are not always drawn. Like-named read-outs stand apart in the source and are kept apart here.
Assays:
Experiment in all cases: AK assay 384-well format, Prestwick library screening
K. pneumoniae = type: cell-based, Klebsiella pneumoniae; conditions: Klebsiella pneumoniae, 3 h, 50 μM final drug concentration
P. aeruginosa = type: cell-based, Pseudomonas aeruginosa; conditions: Pseudomonas aeruginosa, 3 h, 50 μM final drug concentration
E. faecium = type: cell-based, Enterococcus faecium; conditions: Enterococcus faecium, 3 h, 50 μM final drug concentration
[1] = system: A. baumannii strain 98-37-09; type: cell-based, Acinetobacter baumannii; conditions: Acinetobacter baumannii, 983709, 3 h, 50 μM final drug concentration
E. coli = type: cell-based, Escherichia coli; conditions: Escherichia coli, 3 h, 50 μM final drug concentration
E. cloacae = type: cell-based, Enterobacter cloacae; conditions: Enterobacter cloacae, 3 h, 50 μM final drug concentration
[2] = system: S. aureus strain USA300-0114; type: cell-based, Staphylococcus aureus; conditions: Staphylococcus aureus, USA300, 3 h, 50 μM final drug concentration
[3] = planktonic K. pneumoniae, cutoff for positive-scoring molecules 3-fold increase, read-out: AK-based Prestwick Library Screening Results, K. pneumoniae (increase in extracellular AK activity)
[4] = planktonic P. aeruginosa, cutoff for positive-scoring molecules 3-fold increase, read-out: AK-based Prestwick Library Screening Results, P. aeruginosa (increase in extracellular AK activity)
[5] = planktonic E. faecium, cutoff for positive-scoring molecules 3-fold increase, read-out: AK-based Prestwick Library Screening Results, E. faecium (increase in extracellular AK activity)
[6] = planktonic A. baumannii, cutoff for positive-scoring molecules 3-fold increase, read-out: AK-based Prestwick Library Screening Results, A. baumannii (increase in extracellular AK activity)
[7] = planktonic E. coli, cutoff for positive-scoring molecules 3-fold increase, read-out: AK-based Prestwick Library Screening Results, E. coli (increase in extracellular AK activity)
[8] = planktonic E. cloacae, cutoff for positive-scoring molecules 3-fold increase, read-out: AK-based Prestwick Library Screening Results, E. cloacae (increase in extracellular AK activity)
[9] = planktonic S. aureus, cutoff for positive-scoring molecules 3-fold increase, read-out: AK-based Prestwick Library Screening Results, S. aureus (increase in extracellular AK activity)
[10] = planktonic, cutoff for positive-scoring molecules 3-fold increase, read-out: AK-based Prestwick Library Screening Results, K. pneumoniae (fold increase in extracellular AK activity)
[11] = planktonic, cutoff for positive-scoring molecules 3-fold increase, read-out: AK-based Prestwick Library Screening Results, P. aeruginosa (fold increase in extracellular AK activity)
[12] = planktonic, cutoff for positive-scoring molecules 3-fold increase, read-out: AK-based Prestwick Library Screening Results, E. faecium (fold increase in extracellular AK activity)
[13] = planktonic, cutoff for positive-scoring molecules 3-fold increase, read-out: AK-based Prestwick Library Screening Results, A. baumannii (fold increase in extracellular AK activity)
[14] = planktonic, cutoff for positive-scoring molecules 3-fold increase, read-out: AK-based Prestwick Library Screening Results, E. coli (fold increase in extracellular AK activity)
[15] = planktonic, cutoff for positive-scoring molecules 3-fold increase, read-out: AK-based Prestwick Library Screening Results, E. cloacae (fold increase in extracellular AK activity)
[16] = planktonic, cutoff for positive-scoring molecules 3-fold increase, read-out: AK-based Prestwick Library Screening Results, S. aureus (fold increase in extracellular AK activity)

Compound `O=C(NCCN1CCOCC1)c1ccc(Cl)cc1` [Moclobemide] has a fold induction at 50 µM (K. pneumoniae; [3]) of 0.6, a fold induction at 50 µM (P. aeruginosa; [4]) of 0.8 and a fold induction at 50 µM (E. faecium; [5]) of 0.9. It also gave a fold induction at 50 µM [1, 6] of 0.7, a fold induction at 50 µM (E. coli; [7]) of 0.9 and a fold induction at 50 µM (E. cloacae; [8]) of 1.2. For the same compound, the fold induction at 50 µM [2, 9] was 0.6.

For `CCc1c(C)[nH]c2c1C(=O)C(CN1CCOCC1)CC2` (stereo not drawn) [Molindone hydrochloride], the fold induction at 50 µM (K. pneumoniae; planktonic K. pneumoniae, positive cutoff 3-fold increase, read-out: AK-based Prestwick library screening result, K. pneumoniae (fold increase in extracellular AK activity)) was 1, the fold induction at 50 µM (P. aeruginosa; planktonic P. aeruginosa, positive cutoff 3-fold increase, read-out: AK-based Prestwick library screening result, P. aeruginosa (fold increase in extracellular AK activity)) was 0.9 and the fold induction at 50 µM (E. faecium; planktonic E. faecium, positive cutoff 3-fold increase, read-out: AK-based Prestwick library screening result, E. faecium (fold increase in extracellular AK activity)) was 1. For the same compound, the fold induction at 50 µM ([1]; planktonic A. baumannii, positive cutoff 3-fold increase, read-out: AK-based Prestwick library screening result, A. baumannii (fold increase in extracellular AK activity)) was 1.1, the fold induction at 50 µM (E. coli; planktonic E. coli, positive cutoff 3-fold increase, read-out: AK-based Prestwick library screening result, E. coli (fold increase in extracellular AK activity)) was 1.1 and the fold induction at 50 µM (E. cloacae; planktonic E. cloacae, positive cutoff 3-fold increase, read-out: AK-based Prestwick library screening result, E. cloacae (fold increase in extracellular AK activity)) was 1.7. The fold induction at 50 µM ([2]; planktonic S. aureus, positive cutoff 3-fold increase, read-out: AK-based Prestwick library screening result, S. aureus (fold increase in extracellular AK activity)) was 1.1.

`CCOC(=O)[N-]c1cn(N2CCOCC2)n[o+]1` [Molsidomine] was tested, and the fold induction at 50 µM (K. pneumoniae; planktonic, cutoff for positive 3-fold increase, read-out: AK-based Prestwick Library Screening Results, K. pneumoniae (fold increase in extracellular AK activity)) was 1, the fold induction at 50 µM (P. aeruginosa; planktonic, cutoff for positive 3-fold increase, read-out: AK-based Prestwick Library Screening Results, P. aeruginosa (fold increase in extracellular AK activity)) was 1.1 and the fold induction at 50 µM (E. faecium; planktonic, cutoff for positive 3-fold increase, read-out: AK-based Prestwick Library Screening Results, E. faecium (fold increase in extracellular AK activity)) was 0.9. For the same compound, the fold induction at 50 µM ([1]; planktonic, cutoff for positive 3-fold increase, read-out: AK-based Prestwick Library Screening Results, A. baumannii (fold increase in extracellular AK activity)) was 1.2, the fold induction at 50 µM (E. coli; planktonic, cutoff for positive 3-fold increase, read-out: AK-based Prestwick Library Screening Results, E. coli (fold increase in extracellular AK activity)) was 1.4 and the fold induction at 50 µM (E. cloacae; planktonic, cutoff for positive 3-fold increase, read-out: AK-based Prestwick Library Screening Results, E. cloacae (fold increase in extracellular AK activity)) was 1.5. For the same compound, the fold induction at 50 µM ([2]; planktonic, cutoff for positive 3-fold increase, read-out: AK-based Prestwick Library Screening Results, S. aureus (fold increase in extracellular AK activity)) was 0.9.

Work on `C[C@@H]1C[C@H]2[C@@H]3CCC4=CC(=O)C=C[C@]4(C)[C@@]3(Cl)[C@@H](O)C[C@]2(C)[C@@]1(OC(=O)c1ccco1)C(=O)CCl` [Mometasone furoate] yielded a fold induction at 50 µM (K. pneumoniae; [3]) of 0.7, a fold induction at 50 µM (P. aeruginosa; [4]) of 0.6 and a fold induction at 50 µM (E. faecium; [5]) of 1. For the same compound, the fold induction at 50 µM [1, 6] was 0.9, the fold induction at 50 µM (E. coli; [7]) was 0.9 and the fold induction at 50 µM (E. cloacae; [8]) was 0.9. The fold induction at 50 µM [2, 9] was 0.4.

With `CC[C@@]1([C@@H]2O[C@@H]([C@H]3O[C@@](O)(CO)[C@H](C)C[C@@H]3C)C[C@@H]2C)CC[C@H]([C@]2(C)CC[C@]3(C[C@H](O)[C@@H](C)[C@@H]([C@@H](C)[C@@H](OC)[C@H](C)C(=O)O)O3)O2)O1` [Monensin sodium salt] the fold induction at 50 µM (K. pneumoniae; [10]) was 0.6, the fold induction at 50 µM (P. aeruginosa; [11]) was 0.9 and the fold induction at 50 µM (E. faecium; [12]) was 1.1. For the same compound, the fold induction at 50 µM [1, 13] was 0.7, the fold induction at 50 µM (E. coli; [14]) was 0.9 and the fold induction at 50 µM (E. cloacae; [15]) was 1.1. The fold induction at 50 µM [2, 16] was 0.7.

`Oc1ccc(OCc2ccccc2)cc1` [Monobenzone] gave a fold induction at 50 µM (K. pneumoniae; [10]) of 0.5, a fold induction at 50 µM (P. aeruginosa; [11]) of 0.7 and a fold induction at 50 µM (E. faecium; [12]) of 0.6. For the same compound, the fold induction at 50 µM [1, 13] was 0.5, the fold induction at 50 µM (E. coli; [14]) was 0.7 and the fold induction at 50 µM (E. cloacae; [15]) was 1.4. The fold induction at 50 µM [2, 16] was 0.6.

For `C[C@H]1C(=O)O[C@@H]2CCN3CC=C(COC(=O)[C@](C)(O)[C@]1(C)O)[C@H]23` [Monocrotaline], the fold induction at 50 µM (K. pneumoniae; planktonic, […], read-out: AK-based Prestwick Library Screening Results, K. pneumoniae (fold increase in extracellular AK activity)) was 1, the fold induction at 50 µM (P. aeruginosa; planktonic, […], read-out: AK-based Prestwick Library Screening Results, P. aeruginosa (fold increase in extracellular AK activity)) was 1.2 and the fold induction at 50 µM (E. faecium; planktonic, […], read-out: AK-based Prestwick Library Screening Results, E. faecium (fold increase in extracellular AK activity)) was 1.1. It also gave a fold induction at 50 µM ([1]; planktonic, […], read-out: AK-based Prestwick Library Screening Results, A. baumannii (fold increase in extracellular AK activity)) of 1.2, a fold induction at 50 µM (E. coli; planktonic, […], read-out: AK-based Prestwick Library Screening Results, E. coli (fold increase in extracellular AK activity)) of 1.3 and a fold induction at 50 µM (E. cloacae; planktonic, […], read-out: AK-based Prestwick Library Screening Results, E. cloacae (fold increase in extracellular AK activity)) of 1.3. For the same compound, the fold induction at 50 µM ([2]; planktonic, […], read-out: AK-based Prestwick Library Screening Results, S. aureus (fold increase in extracellular AK activity)) was 1.

`Cc1ccsc1/C=C/C1=NCCCN1C` [Morantel tartrate] gave a fold induction at 50 µM (K. pneumoniae; planktonic K. pneumoniae, 384-well, […], read-out: AK-based Prestwick Library Screening Results: K. pneumoniae (increase in extracellular AK activity)) of 0.9, a fold induction at 50 µM (P. aeruginosa; planktonic P. aeruginosa, 384-well, […], read-out: AK-based Prestwick Library Screening Results: P. aeruginosa (increase in extracellular AK activity)) of 1.2 and a fold induction at 50 µM (E. faecium; planktonic E. faecium, 384-well, […], read-out: AK-based Prestwick Library Screening Results: E. faecium (increase in extracellular AK activity)) of 0.8. The fold induction at 50 µM ([1]; planktonic A. baumannii, 384-well, […], read-out: AK-based Prestwick Library Screening Results: A. baumannii (increase in extracellular AK activity)) was 1.1, the fold induction at 50 µM (E. coli; planktonic E. coli, 384-well, […], read-out: AK-based Prestwick Library Screening Results: E. coli (increase in extracellular AK activity)) was 1.4 and the fold induction at 50 µM (E. cloacae; planktonic E. cloacae, 384-well, […], read-out: AK-based Prestwick Library Screening Results: E. cloacae (increase in extracellular AK activity)) was 1.3. It also gave a fold induction at 50 µM ([2]; planktonic S. aureus, 384-well, […], read-out: AK-based Prestwick Library Screening Results: S. aureus (increase in extracellular AK activity)) of 1.2.

`CCOC(=O)Nc1ccc2c(c1)N(C(=O)CCN1CCOCC1)c1ccccc1S2` [Moricizine hydrochloride] showed a fold induction at 50 µM (K. pneumoniae; cutoff for positive-scoring molecules 3-fold increase, read-out: AK-based Prestwick Library Screening Results, K. pneumoniae (fold increase in extracellular AK activity)) of 0.6, a fold induction at 50 µM (P. aeruginosa; cutoff for positive-scoring molecules 3-fold increase, read-out: AK-based Prestwick Library Screening Results, P. aeruginosa (fold increase in extracellular AK activity)) of 0.6 and a fold induction at 50 µM (E. faecium; cutoff for positive-scoring molecules 3-fold increase, read-out: AK-based Prestwick Library Screening Results, E. faecium (fold increase in extracellular AK activity)) of 1. For the same compound, the fold induction at 50 µM ([1]; cutoff for positive-scoring molecules 3-fold increase, read-out: AK-based Prestwick Library Screening Results, A. baumannii (fold increase in extracellular AK activity)) was 0.6, the fold induction at 50 µM (E. coli; cutoff for positive-scoring molecules 3-fold increase, read-out: AK-based Prestwick Library Screening Results, E. coli (fold increase in extracellular AK activity)) was 0.6 and the fold induction at 50 µM (E. cloacae; cutoff for positive-scoring molecules 3-fold increase, read-out: AK-based Prestwick Library Screening Results, E. cloacae (fold increase in extracellular AK activity)) was 0.7. For the same compound, the fold induction at 50 µM ([2]; cutoff for positive-scoring molecules 3-fold increase, read-out: AK-based Prestwick Library Screening Results, S. aureus (fold increase in extracellular AK activity)) was 0.6.

Reference: patent publication US10004701B2, “Methods and compositions for treating infection” (UNIVERSITY OF ROCHESTER, priority 2012, dated 2018)
